Legend:
Assay type in all cases: binding
[1] = target: DCAF15-DDB1-DDA1 with RBM39(Δ150) (Homo sapiens, UniProt Q14498+Q66K64); assay: TR-FRET ternary complex recruitment assay
RBM39(Δ150) = target: T1, RBM39(Δ150) (Homo sapiens, UniProt Q14498); assay: isothermal titration calorimetry
T1 sequence (Q14498 151-530): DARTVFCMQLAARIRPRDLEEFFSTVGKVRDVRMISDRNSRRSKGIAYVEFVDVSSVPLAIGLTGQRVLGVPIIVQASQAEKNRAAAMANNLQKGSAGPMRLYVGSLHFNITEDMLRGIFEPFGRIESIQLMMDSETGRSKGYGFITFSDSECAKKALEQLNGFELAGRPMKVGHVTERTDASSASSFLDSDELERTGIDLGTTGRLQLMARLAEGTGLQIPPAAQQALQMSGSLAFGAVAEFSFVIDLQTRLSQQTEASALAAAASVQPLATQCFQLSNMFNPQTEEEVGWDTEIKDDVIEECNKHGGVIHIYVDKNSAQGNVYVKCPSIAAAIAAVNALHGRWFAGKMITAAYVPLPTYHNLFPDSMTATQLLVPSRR

DCAF15-DDB1(ΔBPB)-DDA1 = DCAF15-DDB1(ΔBPB)-DDA1 (Homo sapiens, UniProt Q66K64); assay: isothermal titration calorimetry
[2] = target: DCAF15-DDB1(ΔBPB)-DDA1 and RBM39(Δ150) mixture (Homo sapiens, UniProt Q14498+Q66K64); assay: isothermal titration calorimetry

SMILES	EC50 [1]	further results
NS(=O)(=O)c1ccc(S(=O)(=O)Nc2cccc3c(Cl)c[nH]c23)cc1 [Indisulam]	3.4 µM	Kd (RBM39(Δ150)): > 50 µM; Kd (DCAF15-DDB1(ΔBPB)-DDA1): ~17 µM; Kd [2]: 0.187 µM
NS(=O)(=O)c1ccc(S(=O)(=O)Nc2cccc3cc[nH]c23)cc1 [compound 3, N-(1H-indol-7-yl)benzene-1,4-disulfonamide]	> 50 µM	–
N#Cc1c[nH]c2c(NS(=O)(=O)c3ccc(S(N)(=O)=O)cc3)cccc12 [compound 2, N-(3-cyano-1H-indol-7-yl)benzene-1,4-disulfonamide]	1.21 µM	–
Cc1c[nH]c2c(NS(=O)(=O)c3ccc(S(N)(=O)=O)cc3)cccc12 [compound 1, N-(3-methyl-1H-indol-7-yl)benzene-1,4-disulfonamide]	14.3 µM	–

Continued, in another order:

EC50 [1]	SMILES	further results
38.1 µM	O=S(=O)(Nc1cccc2c(Cl)c[nH]c12)c1ccccc1 [compound 5, N-(3-chloro-1H-indol-7-yl)benzenesulfonamide]	–
12.3 µM	Cc1c[nH]c2c(NS(=O)(=O)c3ccc(S(=O)(=O)N(C)C)cc3)cccc12 [compound 4, N^1,N^1-dimethyl-N^4-(3-methyl-1H-indol-7-yl)benzene-1,4-disulfonamide]	–
2.38 µM	Cc1ccc(NS(=O)(=O)c2ccc(CN)cc2)c2[nH]cc(C#N)c12 [compound 7, 4-(aminomethyl)-N-(3-cyano-4-methyl-1H-indol-7-yl)benzenesulfonamide]	–
3.82 µM	Cc1ccc(NS(=O)(=O)c2ccc(N)cc2)c2[nH]cc(C#N)c12 [compound 6, Compound 6]	–

Source: doi:10.1101/737510v1 (biorxiv, 2019)
